Assay results: patent publication US7439071B2, “Method of employing elevation of marinobufagenin in determining the presence of preeclampsia and related apparatus” (The Administrators of the Tulane Educational Fund, priority 2003, dated 2008)

Test system: vessels from preeclamptic rats / normal pregnant rats
Test: Perfusion of individual vessels dissected from rat models of preeclampsia and from normal pregnant rats with marinobufagenin
Text: It is elevated substantially more in preeclamptic rats.

Compound: C[C@]12CC[C@H](O)C[C@@]1(O)CC[C@@H]1[C@@H]2CC[C@]2(C)[C@@H](c3ccc(=O)oc3)C[C@H]3O[C@]132 [marinobufagenin]
- constriction of perfused vessels (vessels from normal pregnant animals or rats perfused with marinobufagenin): do not constrict
- constriction of perfused vessels as compared with the controlled circumstance (average) (vessels from preeclamptic rats perfused with marinobufagenin): about 36%
